The text below walks through data of patent US10780061B2, “Composition comprising farnesol and use thereof” (Daegu Gyongbuk Institute of Science and Technology, priority 2014, dated 2020).

For data set [1] the following is noted: cited from earlier work.
The subject of another data set is PGC-1α. Kind of data set: Immunoblotting of tibialis anterior muscles of mice administered with farnesol. The format is in vivo, mouse. The settings on record: 5 month-old mice, feed with 0.5% w/w farnesol, 5 weeks. The procedure: 5 month-old C57BL/6 male mice (weighing 22 g) are maintained at a temperature of 22±2° C., humidity of 55±5%, and a light-dark cycle of 12:12 hours. An animal feed containing 0.5% w/w farnesol was supplied by Jung-Ang Lab Animal Inc. A control group is fed with a feed equivalent to a general feed for experimental animals, excluding that no 0.5% w/w farnesol is contained. They are allowed free access to drinking water. Skeletal muscles were separated from the mice and control mouse fed with farnesol for 5 weeks, and subjected to immunoblot analysis. In all the following Examples, administration or feeding of mouse is performed as above, unless otherwise mentioned. […] In this specification, assuming that human life expectancy of 100 years corresponds to mouse life expectancy of 3 years, human life expectancy is estimated from the relationship.

For data set [2], the system named is extensor digitorum longus muscle fibers. Kind of data set: Immunohistochemistry of muscle fiber type (MHC2a/MHC2b) in extensor digitorum longus muscle. The format is in vivo, mouse. From the text:
To examine distribution of 2a type muscle fiber and 2b type muscle fiber, extensor digitorum longus muscles of mice administered with farnesol for 5 weeks are subjected to immunohistochemistry. 2a type muscle fiber is an oxidative muscle fiber type, and there are two types: aerobic, that is, oxygen-dependent energy source and anaerobic, that is, oxygen-independent energy source. 2b type muscle fiber is a glycolytic muscle fiber type, and includes only anaerobic energy source. Frozen sections stored in a deep freezer of -80° C. are washed with 1×PBS twice, and fixed with 4% paraformaldehyde at room temperature for 15 minutes, and then washed with 1×PBS twice. The tissue and a permeabilization buffer (0.2% Triton-X/PBS) are reacted at room temperature for 30 minutes, and washed with 1×PBS twice. The tissue and Proteinase K are reacted at 37° C. for 10 minutes for antigen retrieval, and washed with 1×PBS twice, and blocked in a blocking buffer (0.1% gelatin, 5% goat serum, 0.5% BSA, and 0.1% Triton-X) for 1 hr. As a primary antibody, a rabbit antibody specifically binding to MHC2a or MHC2b is diluted with the blocking buffer at a ratio of 1:500 and reacted at 4° C. for 12 hrs, followed by washing with 1×PBS twice. A secondary antibody, anti-rabbit antibody is reacted, followed by washing 1×PBS twice. After sealing, a fluorescence microscope (Nikon, body: Ti-u, camera: DS-RI1, program: NIS-elements BR 3.1) was used for analysis. Farnesol is administered to mice in the same manner as in Section 3 of Example 2, except that 22-month-old mice are used instead of 5-month-old mice and administration is performed for 4 months instead of 5 weeks, and changes in the skeletal muscle type are examined.

Another data set addresses T1, PARIS (Mus musculus, UniProt Q3U133).
T1 construct: endogenous in cells; host or cells: C2C12 myoblasts
Kind of data set: Immunoprecipitation analysis for PARIS farnesylation in myoblasts. The format is cell-based. The method, then:
C2C12 cells are cultured in the presence of farnesol, and cell lysate is subjected to immunoprecipitation. As an experimental group, C2C12 cells are cultured in the presence of 10 uM farnesol for 24 hours, and also cultured in the differentiation medium described in Section 2 of Example 1 for 24 hours by adding 10 uM farnesol according to a culturing schedule, that is, at 0 day, 1 day, 2 days, 3 days, and 4 days (hereinafter, also referred to as ‘D0, D1, D2, D3 and D4’ or ‘D0-D04’). Next, a cell lysis buffer (20 mM Tris-HCl, pH 8, 150 mM NaCl, 1% Triton X, Proteinase Inhibitor) is added to the harvested cells, and cell lysis is allowed under refrigeration for 60 minutes, followed by centrifugation at 13,000 rpm for 20 minutes. A supernatant is removed by 50 uL of protein A/G-agarose in advance, and a target protein antibody is reacted for 12 hours or longer. The resultant is mixed with protein A/G-agarose beads, and stirred for 1 hour. The beads are washed with a cold lysis buffer at a low concentration three times to remove abnormal protein binding. The obtained sample is mixed with a 2×SDS sample buffer (0.125 M Tris-HCl (pH 6.8), 4% SDS, 10% β-mercaptoethanol, 18% glycerol, and 0.1% Bromophenol Blue), and then electrophoresed on 8% SDS-PAGE. […]

Data set [3] deals with PARIS-overexpressing C2C12 cells. Kind of data set: Differentiation of PARIS-overexpressing myoblasts (Myh immunostaining). The format is cell-based. The procedure:
In C2C12 myoblasts, a PARIS gene expression vector (pCMV-Tag2A, Stratagene) is transiently expressed, followed by immunoblotting and immunostaining analysis. PARIS gene is a full length cDNA of human PARIS gene having a nucleotide sequence of SEQ ID NO: 9. […] After induction of differentiation of PARIS-overexpressing C2C12 cells for 3 days, immunostaining for Myh expression is performed. To induce the differentiation, cells are cultured in DMEM containing 2% horse serum and 0.1 μM farnesol dissolved in DMSO for 48 hours. A control group is cultured in the same manner as above, except that only DMSO is added. Other culture conditions are the same as those described in Section 1 of Example 2. As shown in panel (A) of FIG. 4F, PARIS overexpression decreases Myh-positive myotube formation, and reduced myotube formation is recovered by farnesol treatment. In (A) of FIG. 4F, Control represents myoblasts introduced with no PARIS gene expression vector, and ‘PARIS’ represents myoblasts introduced with a PARIS gene expression vector. In these experiments, blue color staining indicates nuclei, and red color staining indicates stained myh and also myotubes. The colors are not shown in panel (A) of FIG. 4F, but the difference in the relative amount of red color stained area is quantified in panel (B) of FIG. 4F, wherein pCMV represents the control myoblasts without a PARIS gene expression vector. […]

Where [4] appears, read: 5-month-old mice, farnesol orally 5 weeks.

T1 sequence (Q3U133 whole entry): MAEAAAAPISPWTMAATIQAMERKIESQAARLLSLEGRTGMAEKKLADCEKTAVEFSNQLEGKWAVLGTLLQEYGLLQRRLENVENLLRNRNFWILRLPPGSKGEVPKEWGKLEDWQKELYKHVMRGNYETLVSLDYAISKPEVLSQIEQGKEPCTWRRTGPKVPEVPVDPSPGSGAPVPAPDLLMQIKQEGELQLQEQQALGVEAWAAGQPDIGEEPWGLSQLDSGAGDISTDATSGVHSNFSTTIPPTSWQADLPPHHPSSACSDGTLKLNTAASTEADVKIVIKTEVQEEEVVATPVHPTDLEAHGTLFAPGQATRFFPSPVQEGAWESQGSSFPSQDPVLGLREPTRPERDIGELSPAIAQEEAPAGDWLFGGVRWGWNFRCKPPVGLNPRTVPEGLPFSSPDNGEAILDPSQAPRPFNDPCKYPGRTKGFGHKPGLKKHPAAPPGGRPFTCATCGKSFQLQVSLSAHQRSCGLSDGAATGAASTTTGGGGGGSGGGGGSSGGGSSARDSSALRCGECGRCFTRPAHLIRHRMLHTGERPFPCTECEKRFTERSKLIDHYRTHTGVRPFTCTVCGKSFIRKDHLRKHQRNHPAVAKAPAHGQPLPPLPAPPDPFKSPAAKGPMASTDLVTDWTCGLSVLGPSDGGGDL

As for `CC(C)=CCC/C(C)=C/CC/C(C)=C/CO` [farnesol, (2E,6E)-3,7,11-trimethyldodeca-2,6,10-trien-1-ol], the “lethal dose (LD) for 50% mouse mortality” value in data set [1] is recorded as 8,765 mg per mouse body weight (kg). Besides, in the data set on PGC-1α, the “expression of PGC-1α in tibialis anterior muscle” value was “increased” and the “expression of cytochrome C in tibialis anterior muscle” value is “increased”. In addition, in data set [2] (setting [4]), the “diameter of oxidative 2a type muscle fiber in EDL” value is listed as “increased”, the “number of glycolytic 2b type muscle fiber in EDL” value is recorded as “decreased” and the “number of oxidative 2a type muscle fiber in EDL” value was “increased”. For the same molecule, the “number of oxidative 2a type muscle fiber in EDL compared to control” value in data set [2] (22-month-old mice, farnesol 4 months) is “about 1.4 times”. Moreover, the “farnesylated PARIS level” value on PARIS (10 uM farnesol, D0-D4) is listed as “further increases”. Also, at PARIS (10 uM farnesol-treated myoblasts), the PGC-1α expression result was “increased”. Besides, the “red color (Myh) stained area, control cells without PARIS vector” value in data set [3] (CONTROL (pCMV) C2C12, 0.1 μM farnesol vs DMSO) is on record as “‘CONTROL’ cell treated with DMSO is smaller than that of ‘CONTROL’ cell treated with Farnesol”. Moreover, the “Myh-positive myotube formation reduced by PARIS overexpression” value in data set [3] (PARIS-overexpressing C2C12, 0.1 μM farnesol) is given as “recovered”.
